Test results reported in patent publication US20250388810A1, “Kit for Sustaining Luminescence of Luminescent Substrate and Method for Sustaining Luminescence of Luminescent Substrate” (SHIMADZU CORPORATION, priority 2024, published 2025).
“Also recorded” adds a separate entry of the source.

What was measured:
Type in all cases: biochemical
picALuc [1] = assay: Experiment 7: inhibition of luminescence reaction by substrate metabolites with or without NP-40; conditions: metabolite 1 μM; for luminescence value on addition of substrate metabolite: picALuc 100 nM, nCTZ 8 μM, 60 minutes incubation; for suppression of the decreased ratio in the luminescence value by addition of a surfactant: NP-40 (+) versus NP-40 (−)
Protocol: CTM, CTO, or CTMD was added to a mixture solution having the composition described below so that a final concentration was 0 M or 1 μM, followed by incubation at room temperature for 60 minutes. The luminescence value was then measured. At this time, as the measurement device, a GloMax (registered trademark) Navigator Microplate Luminometer (manufactured by Promega) was used. The time indicating the maximum luminescence value (time from addition of the substrate) varies greatly depending on each condition. Therefore, in this experiment, the luminescence value immediately after the addition of the substrate was compared, rather than the maximum luminescence value, so that the amount of the substrate consumed due to the luminescence reaction and the amount of the substrate oxidation due to elapsed time were not taken into consideration. FIG. 10A is graphs showing the correlation between the relative light unit (vertical axis) and the presence or absence of the surfactant and the substrate metabolites (horizontal axis). FIG. 10B is graphs showing the relationship between the rate of decrease in the amount of luminescence due to the addition of the substrate metabolites (vertical axis) and the presence or absence of the surfactant (horizontal axis).
NP-40 (final concentration 0% or 0.01%) picALuc (final concentration 100 nM) nCTZ (final concentration 8 μM) […]
Buffer (137 mM NaCl, 9.6 mM KH2PO4, 2.7 mM KCl, pH 7.0, remainder)

picALuc [2] = assay: Experiment 3: luminescence reaction of picALuc and nCTZ with methanol and NP-40; conditions: picALuc 100 nM, nCTZ 8 μM, methanol
Protocol: The experiment was performed in the same manner as in Experiment 1 except that methanol (MeOH) manufactured by FUJIFILM Wako Pure Chemical Corporation) was used as an alcohol, NP-40 was used as a surfactant, and native coelenterazine (nCTZ, final concentration 8 μM) (manufactured by FUJIFILM Wako Pure Chemical Corporation) was used as a luminescent substrate. At this time, the final concentration of the luminescent enzyme (picALuc) was set to 100 nM. FIG. 4 is a graph showing a change in luminescence intensity over time.

[3] = system: streptavidin-fused picALuc; assay: Experiment 4: simulated detection system, biotinylated BSA detected with streptavidin-fused picALuc
Protocol: In this experiment, as a simulated detection system, biotinylated bovine serum albumin (BSA) was immobilized on a base of a 96-well plate and detection was performed using streptavidin-fused picALuc (FIG. 6A). Specifically, 100 μL of a biotinylated BSA solution (final concentration 10 μg/mL) was first added to each well. After each well was washed with a washing buffer (PBST (0.1% Tween)), blocking was performed by addition of 200 μL of a blocking buffer (20% Immnoblock (manufactured by KAC Co., ltd.) in PBS) to each well. After each well was washed with a washing buffer again, 100 μL of a streptavidin-fused picALuc solution (final concentration 1 μg/mL, diluted with 5% Immunoblock in PBST) was added to each well. Each well was washed with a washing buffer.
Then, immediately before the luminescent substrate was added, NP-40 was diluted with a buffer (PBS) so that the final concentration was 0.002 to 0.2%, and 100 μL of the resulting diluted solution was added to each well. Next, 100 μL of the substrate solution prepared in the same manner as in Experiment 1 was added to each well. The luminescence value was measured immediately after the substrate solution was added. At this time, as the measurement device, GloMax (registered trademark) Navigator Microplate Luminometer (manufactured by Promega) was used. FIG. 6B is a graph showing a change in luminescence intensity over time. […] FIG. 6C is a graph showing the correlation between the maximum value of the relative light unit (vertical axis) and the concentration of the surfactant (horizontal axis). FIG. 6D is a graph showing the correlation between the integrated value of the relative light unit (vertical axis) and the concentration of the surfactant (horizontal axis). The integrated value is the integrated value obtained for 30 minutes after the addition of the substrate solution.

NanoLuc = target: T1, NanoLuc (Oplophorus gracilirostris, UniProt Q9GV45, A31E/A60N/A81I/F95D/I117V/K70R/L54V/L99Q/M102K/N193R/P142E/Q151K/Q38R/Q45L/V71I/Y165I); assay: Experiment 2: luminescence reaction of NanoLuc and CTZh in the presence of surfactant and ethanol; conditions: luminescent enzyme NanoLuc for example 10 nM, CTZh, EtOH
T1 construct: purchased Promega
T1 sequence (Q9GV45 other isoform, or with tags, fused parts or gaps with the stated changes): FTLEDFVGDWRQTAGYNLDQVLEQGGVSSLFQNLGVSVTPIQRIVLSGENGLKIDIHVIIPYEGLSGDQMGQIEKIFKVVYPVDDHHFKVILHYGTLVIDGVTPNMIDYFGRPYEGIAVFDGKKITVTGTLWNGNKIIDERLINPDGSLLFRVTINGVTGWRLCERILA
Protocol: The experiment was performed in the same manner as in Experiment 1 except that NanoLuc (manufactured by Promega) was used as a luminescent enzyme and NP-40 or CHAPS was used as a surfactant. FIG. 3A is graphs showing a change in luminescence intensity over time. […] FIG. 3B is graphs showing the correlation between the maximum value of the normalized luminescence intensity (vertical axis) and the concentration of the luminescent enzyme and the concentration of the surfactant (horizontal axis). FIG. 3C is graphs showing the correlation between the half-life of the luminescence reaction (horizontal axis) and the concentration of the luminescent enzyme and the concentration of the surfactant (vertical axis).

picALuc [4] = assay: Experiment 8: LC-MS of substrate consumed and substrate metabolites produced in luminescence reaction; conditions: NP-40 0.01% versus 0%, picALuc 100 nM, nCTZ 8 μM
Protocol: By LC-MS analysis of a reaction solution containing picALuc and nCTZ, the effect of a surfactant (NP-40) on the amount of the substrate (nCTZ) consumed and the amount of the substrate metabolites (CTM, CTO, CTMD) produced was examined.
A substrate solution (100 μL) having the following composition was added to an enzyme solution (100 μL) having the following composition, to prepare a reaction solution.
At 0 minutes of the luminescence reaction (before the addition of the substrate solution), 10 minutes after the luminescence reaction, or 60 minutes after the luminescence reaction, 1/1000 (volume ratio) of hydrochloric acid was added to the reaction solution to stop the luminescence reaction, and methanol, which was five times the amount of the reaction solution, was added, followed by centrifugation. Then, the supernatant was collected to remove the luminescent enzyme. After that, each reaction solution was analyzed with an LC-MS device to measure the respective amounts of nCTZ, CTM, CTO, and CTMD (FIG. 11). The measurement conditions at this time are as follows.
It was thought that the amount of nCTZ was greater than the actual amount when NP-40 was added due to ion effects. Therefore, it was normalized to the amount of nCTZ when NP-40 was not added. Furthermore, the fact that CTM, CTO, and CTMD were already present in the reaction solution at 0 minutes of luminescence reaction is thought to be caused by converting nCTZ to these compounds during storage of nCTZ. Therefore, the amount of nCTZ consumed and the respective amounts of CTM, CTO, and CTMD produced were calculated by subtracting the amount of each component that was present before the reaction (FIG. 12).

picALuc [5] = assay: Experiment 1: luminescence reaction of picALuc and CTZh in the presence of surfactant and ethanol; conditions: luminescent enzyme picALuc for example 1 nM, CTZh, EtOH
Protocol: When a luminescent enzyme and a luminescent substrate were allowed to react in the presence of a surfactant and an alcohol, how the luminescence characteristics of the luminescent substrate change was examined. First, the luminescent enzyme and the surfactant described below were diluted in a buffer (137 mM NaCl, 9.6 mM KH2PO4, 2.7 mM KCl, pH 7.0) to obtain an enzyme solution with different concentrations of the luminescent enzyme and the surfactant.
Also, coelenterazine h (CTZh), which is the luminescent substrate, was dissolved in ethanol (EtOH) so that a final concentration thereof was 2.4 mM, to obtain an ethanol solution of CTZh. […]
Then, 50 μL of the enzyme solution and 50 μL of the substrate solution were mixed. The luminescence value was measured immediately after mixing. […] FIG. 1A is graphs showing a change in luminescence intensity over time. […] FIG. 1B is graphs showing the correlation between the maximum value of the normalized luminescence intensity (vertical axis) and the concentration of the luminescent enzyme and the concentration of the surfactant (horizontal axis). FIG. 1C is graphs showing the correlation between the half-life of the luminescence reaction (horizontal axis) and the concentration of the luminescent enzyme and the concentration of the surfactant (vertical axis). […]

Row | Compound | luminescence value on addition of substrate metabolite (picALuc [1]; NP-40 (+) 0.01%) | suppression of the decreased ratio in the luminescence value by addition of a surfactant (picALuc [1]) | luminescence value on addition of substrate metabolite (picALuc [1]; NP-40 (−)) | maximum value of the normalized luminescence intensity (NanoLuc) | maximum value of the normalized luminescence intensity (picALuc [5]) | other results
1 | Nc1ncc(-c2ccc(O)cc2)nc1Cc1ccccc1 [CTM, coelenteramine] | a decrease in the luminescence value was clearly observed; also recorded: a decrease in the luminescence value was small | no significant suppression was observed | the luminescence value significantly decreased | – | – | –
2 | poly(oxyethylene)=octylphenyl ether [NP-40] | – | – | – | enhancement of the luminescence intensity was also observed | enhancement of the luminescence intensity was also observed | change in luminescence intensity over time (picALuc [2]): sustained luminescence and enhancement of the luminescence intensity were observed; maximum value of the relative light unit versus when NP-40 was not added ([3]; 0.1% NP-40): 2.2 times; integrated value of the relative light unit versus when NP-40 was not added ([3]; 0.1% NP-40, integrated for 30 minutes after addition of substrate solution): 3.2 times; maximum value of the relative light unit and sustained luminescence ([3]; NP-40 0.002 to 0.2%): an increase in the maximum value of the relative light unit and the sustained luminescence were observed dependently on the concentration; amount of CTM produced when the surfactant was added (picALuc [4]): decreased; amount of CTMD produced when the surfactant was added (picALuc [4]): increased; amount of CTO produced when the surfactant was added (picALuc [4]): remained almost unchanged; amount of nCTZ consumed when the surfactant was added (picALuc [4]): increased
3 | CC(CCC(=O)NCCC[N+](C)(C)CCCS(=O)(=O)O)C1CCC2C3C(O)CC4CC(O)CCC4(C)C3CC(O)C12C (centres unmarked) [CHAPS] | – | – | – | enhancement of the luminescence intensity was also observed | enhancement of the luminescence intensity was also observed | –
4 | O=C(Cc1ccc(O)cc1)Nc1ncc(-c2ccc(O)cc2)nc1Cc1ccccc1 [CTMD, coelenteramide] | – | a tendency to significantly suppress the decreased ratio | the luminescence value significantly decreased | – | – | –
5 | O=c1[nH]cc(-c2ccc(O)cc2)nc1Cc1ccccc1 [CTO, 3-benzyl-5-(4-hydroxyphenyl) pyrazin-2 (1H)-one] | a decrease in the luminescence value was small | a tendency to significantly suppress the decreased ratio | a decrease in the luminescence value was observed | – | – | –
